# Where two headings read alike, the source gives them in different places.
# Experiments:
# [1] = system: mice; test: Maximal Electroshock Seizure (MES) test, mice i.p.; type: in vivo; conditions: for MES, fraction of animals: mice i.p.; for activity in the MES test: mice
# [2] = system: mice; test: 6 Hz (minimal clonic seizure) model, mice i.p.; type: in vivo; conditions: for activity in the 6 Hz (minimal clonic seizure) model: mice, at 100 mg/kg
# [3] = system: rat dopaminergic N27 cells; test: N27 protection assay against oxidative stress (H2O2 or MPP+; MTT and LDH); type: cell-based; conditions: drug 24 hours before 200 μM H2O2 or 640 μM MPP+
# From the text: FIGS. 20A-25D data are shown illustrating neuroprotective and neuroregenerative effects observed in rat dopaminergic N27 cells. Rat dopaminergic N27 cells are commonly used in in vitro and in vivo model systems for studying Parkinson's disease. Parkinson's disease is a neurodegenerative disorder of the central nervous system that affects more than 6 million people worldwide. The motor symptoms of Parkinson's disease result from the death of dopamine generating cells in the substantia nigra, a region of the midbrain.
# The N27 rat dopaminergic neuron cell line was harvested from E12 rat mesencephalic tissue and was transfected with SV40 to immortalize the cell line. The N27 cell line, when injected into the striata of 6-hydroxydopamine-lesioned rats (an animal model of PD) caused a time-dependent improvement in neurological deficits. This immortalized cell line has been carefully characterized in studies of dopamine biosynthesis, neurotoxicity and used as a dopaminergic neuron model studies.
# The N27 in vitro Parkinson's disease model included a test of cell viability and cell toxicity in response to exposure to oxidative stress (e.g., either 200 μM H2O2 or 640 μM MPP+).
# Cell viability was tested using the MTT assay. The MTT assay is a colorimetric analysis based on the activities of mitochondrial NAD(P)H-dependent cellular oxidoreductase enzymes. These enzymes are capable of reducing the tetrazolium dye, MTT [3-(4,5-dimethylthiazol-2-yl)-2,5-diphenyltetrazolium] bromide, to an insoluble formazan (purple). […] More viable cells equal more accumulation of the insoluble formazan dye.
# Cell toxicity was tested using the […] (LDH) assay. Cells that are stressed secrete LDH. In general, the more cells are stressed, the LDH they secrete into their media. The LDH assay is a reliable colorimetric assay to measure quantitatively the […] (LDH) that is released into the cell culture media from damaged cells as a biomarker for cytotoxicity and cytolysis.
# FIGS. 20A-25D present data from two types of assays: protection and recovery assays. In the protection assays, the drug candidate was applied to the cells at various concentrations for 24 hours, followed by the exposure to oxidative stress (either 200 μM H2O2 or 640 μM MPP+) for measuring neuroprotective effect. H2O2 provides a broad measure of oxidative stress, while MPP+ gives a more specific oxidative stress to dopaminergic neurons.
# The protection assay results are shown in panels A-C of FIGS. 20-25 In the recovery assays, the cells were first damaged by exposure to H2O2 and then various concentrations of the drug were applied to the cells. The results for the recovery assays are shown the D panels of FIGS. 20-25.
# [4] = system: SMN2 promoter; test: SMN2 promoter β-lactamase reporter assay in NSC34 motor neuron-like cells; type: cell-based; conditions: for Promoter (SMN2 promoter test, summary YES/NO): Table 13 summary; for SMN2 promoter activity: treatment for 19 hours at a concentration of 1 μM
# Procedure: FIG. 30 illustrates a screen for SMN2 expression of a number of compounds described herein.
# SMN2 promoter activity was measured using NSC34 motor neuron-like cells stably transfected with a β-lactamase (BLA) reporter gene under the control of a 3.4-kilobase fragment of the SMN2 promoter. D156844 was used as a positive control for this assay.
# [5] = system: rats; test: Pilocarpine-induced Status Epilepticus in Rats (prevention; intervention @ 30 min); conditions: Rattus norvegicus
# Procedure: The animal testing was performed using the protocols developed in the Anticonvulsant Screening Program (ASP) at the National Institute of Neurological Disorders and Stroke (NINDS), National Institutes of Health (NIH).
# [6] = system: mice; test: Subcutaneous Metrazol Seizure threshold (s.c. MET) test, mice i.p.; type: in vivo; conditions: for s.c. MET, fraction of animals: mice i.p.; for activity in the s.c. MET test: mice, at 300 mg/kg
# [7] = system: mice; test: Minimal motor impairment (MID50), mice i.p.; conditions: mice i.p.; 100 mg/kg @ 0.5 hr
# Procedure: The animal testing was performed according to methods known in the relevant art.
# [8] = system: inclusion of exon 7 in SMN2 mRNAs; test: Exon 7 inclusion BLA reporter assay in NSC34 cell line; type: cell-based; conditions: for Exon 7 inclusion (summary YES/NO): Table 13 summary
# From the text: To measure changes in the inclusion of exon 7 in SMN2 mRNAs, another NSC34 cell line was used that stably transfected with a reporter construct which expresses BLA when exon 7 is included in the SMN2 minigene mRNAs. 5-(N-ethyl-N-isopropyl)-amiloride (EIPA) was used as a positive control for this assay. Data for tis assay is illustrated in FIG. 30.
# [9] = read-out: Prevention, Protection
# [10] = NSC34 exon 7 BLA reporter cells
compound,measurement,setting,value
"COCCNC(=O)CC(C)c1ccc(OC(F)(F)F)cc1 (centres unmarked) [BL, N-(2-Methoxy-ethyl)-3-(4-trifluoromethoxy-phenyl)-butyramide]","MES, fraction of animals",[1]; 100 mg/kg @ 0.25 hr,2/3 @
same,activity in the MES test,[1]; at 100 mg/kg,activity
same,activity in the 6 Hz (minimal clonic seizure) model,[2],activity
same,neuroprotective effect against H2O2 and MPP+ oxidative stresses (MTT and LDH assays),[3],"statistically significant, dose-dependent neuroprotection"
"CNC(=O)CC(C)c1ccc2c(c1)OCO2 (centres unmarked) [Compound M, N-methyl-3-(3,4-methylenedioxy-phenyl)butyramide]",neuroprotective effect against H2O2 and MPP+ oxidative stresses (MTT and LDH assays),[3],potent dose-dependent neuroprotective effects
same,"Promoter (SMN2 promoter test, summary YES/NO)",[4],YES
same,SMN2 promoter activity,[4],increased SMN2 promoter activity
same,responders at 600 mg/kg,[5]; [9],100%
CC(O)(CC(N)=O)c1cccc(C(F)(F)F)c1 (racemic) [CE],"MES, fraction of animals",[1]; 30 mg/kg @ 0.50 hr,1/1 @
same,"s.c. MET, fraction of animals",[6]; 30 mg/kg @ 0.5 hr,"1/5 @ 0.5 hr,"
same,"s.c. MET, fraction of animals",[6]; 100 mg/kg @ 0.5 hr,"1/1 @ 0.5 hr,"
same,"MID50, fraction of animals",[7],"3/8 @ 0.5 hr,"
NC(=O)CC1(c2ccc(Cl)cc2)CCCC1 [AJ],"MES, fraction of animals",[1]; 100 mg/kg @ 0.25 hr,3/3
same,"MES, fraction of animals",[1]; 100 mg/kg @ 1.0 hr,1/3
same,"s.c. MET, fraction of animals",[6]; 300 mg/kg @ 0.5 hrs,"1/1 @ 0.5 hrs,"
same,"Promoter (SMN2 promoter test, summary YES/NO)",[4],YES
same,SMN2 promoter activity,[4],increased SMN2 promoter activity
same,effect on the inclusion of exon 7 in SMN2 transcripts,[8]; [10],positive effect on the inclusion of exon 7
same,"exon 7 test, particularly strong hits",[8]; [10],Particularly strong hits
same,Exon 7 inclusion (summary YES/NO),[8],YES
"CC1CCN(C(=O)CC(C)c2ccc(OC(F)(F)F)cc2)CC1 (centres unmarked) [BK, 1-(4-Methyl-piperidin-1-yl)-3-(4-trifluoromethoxy-phenyl)-butan-1-one]","MES, fraction of animals",[1]; 100 mg/kg @ 0.5 hr,1/3
same,"MES, fraction of animals",[1]; 100 mg/kg @ 2.0 hr,2/3
same,activity in the 6 Hz (minimal clonic seizure) model,[2],activity
same,neuroprotective effect against H2O2 and MPP+ oxidative stresses (MTT and LDH assays),[3],"statistically significant, dose-dependent neuroprotection"
same,"Promoter (SMN2 promoter test, summary YES/NO)",[4],YES
same,SMN2 promoter activity,[4],increased SMN2 promoter activity
"COCCCNC(=O)CC(C)c1ccc(OC(F)(F)F)cc1 (centres unmarked) [BM, N-(3-Methoxy-propyl)-3-(4-trifluoromethoxy-phenyl)-butyramide]",activity in the MES test,[1]; at 300 mg/kg,activity
same,activity in the s.c. MET test,[6],activity
same,"6 Hz (32 mA), fraction of animals","[2]; mice i.p., 100 mg/kg @ 0.5 hr",1/4 @ 0.5 hr
same,neuroprotective effect against H2O2 and MPP+ oxidative stresses (MTT and LDH assays),[3],"statistically significant, dose-dependent neuroprotection"
same,SMN2 promoter activity,[4],increased SMN2 promoter activity
"CC(CC(N)=O)c1ccc2c(c1)OCO2 (centres unmarked) [L, 3-(3,4-methylenedioxy-phenyl)butyramide]",activity in the MES test,[1]; at 300 mg/kg,activity
same,activity in the s.c. MET test,[6],activity
same,SMN2 promoter activity,[4],increased SMN2 promoter activity
same,effect on the inclusion of exon 7 in SMN2 transcripts,[8]; [10],positive effect on the inclusion of exon 7
same,Exon 7 inclusion (summary YES/NO),[8],YES
same,responders at 600 mg/kg,"[5]; 0.5 h, read-out: Intervention @ 30 min, Protection",29%
same,responders at 450 mg/kg,[5]; [9],100%
"C[C@H](CC(N)=O)c1ccccc1 [Compound C, (R)-3-Phenylbutyramide]","MES, fraction of animals",[1]; 100 mg/kg @ 0.5 hr,"1/6 @0.5 hr,"
same,activity in the MES test,[1]; at 100 mg/kg,activity
same,"MID50, fraction of animals",[7],1/8 @0.5 hr
"CNC(=O)CC(C)(C)c1ccc(Cl)cc1 [Compound B, 3-(4-Chlorophenyl)-3,N-dimethylbutyramide]",neuroprotective effect against H2O2 and MPP+ oxidative stresses (MTT and LDH assays),[3],potent dose-dependent neuroprotective effects
same,"MID50, fraction of animals",[7],2/8 @0.5 hr
same,responders at 300 mg/kg,[5]; [9],43%
